Our source for the IC50 values is patent publication US20240059700A1, “NOVEL DIACYLGLYCERIDE O-ACYLTRANSFERASE 2 INHIBITORS” (Merck Sharp & Dohme LLC, priority 2020, published 2024).

The term IC50 denotes the concentration that gives 50% inhibition. A low value points to inhibition by little substance.

human DGAT2 (hDGAT2), sequence (Q96PD7 whole entry): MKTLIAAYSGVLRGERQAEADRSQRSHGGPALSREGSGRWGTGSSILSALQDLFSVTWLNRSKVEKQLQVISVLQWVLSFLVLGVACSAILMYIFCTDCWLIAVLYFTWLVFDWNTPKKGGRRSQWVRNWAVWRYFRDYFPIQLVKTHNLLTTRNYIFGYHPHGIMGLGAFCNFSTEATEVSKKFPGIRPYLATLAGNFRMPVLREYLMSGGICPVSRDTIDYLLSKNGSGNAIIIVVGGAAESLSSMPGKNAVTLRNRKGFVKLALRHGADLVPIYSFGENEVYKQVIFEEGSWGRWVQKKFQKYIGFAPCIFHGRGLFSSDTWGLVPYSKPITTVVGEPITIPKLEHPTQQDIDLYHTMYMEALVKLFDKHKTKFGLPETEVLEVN

This assay concerns the target human DGAT2 (hDGAT2) (Homo sapiens (Human), UniProt Q96PD7). In words: DGAT2 Enzymatic Activity Assay. The assay is classed as biochemical. The conditions noted are these: membrane prep of Sf-9 insect cells expressing hDGAT2; 13C18-triolein product by LC/MS/MS. How it is done:
Sf-9 insect cells were maintained in Grace's insect cell culture medium with 10% heated-inactivated fetal bovine serum, 1% Pluronic F-68 and 0.14 μg/ml Kanamycine sulfate at 27° C. in a shaker incubator. After infection with untagged baculovirus expressing human DGAT2 (hDGAT2) at multiplicity of infection (MOI) 3 for 48 hours, cells were harvested. Cell pellets were suspended in buffer containing 10 mM Tris-HCl pH 7.5, 1 mM EDTA, 250 mM sucrose and Complete Protease Inhibitor Cocktail (Sigma Aldrich), and sonicated on ice. Cell debris were removed by centrifugation at 2000×g for 15 minutes. Membrane fractions were isolated by ultracentrifugation (100,000×g), resuspended in the same buffer, and frozen (−80° C.) for later use. The protein concentration was determined with the Pierce™ BCA Protein Assay Kit (Thermo Fisher Scientific). Expression of protein levels was analyzed by immunoblotting with rabbit anti-DGAT2 antibody (Abcam, ab102831) and donkey anti-rabbit IgG H&L Alexa Fluor® 647 (Abcam, ab150075) followed by detection using Typhoon FLA9000 (GE Healthcare).
LC/MS/MS analyses were performed using Thermal Fisher's LX4-TSQ Vantage system. This system consists of an Agilent binary high-performance liquid chromatography (HPLC) pumps and a TSQ Vantage triple quadrupole MS/MS instrument. For each sample, 2 μL samples from the top organic layer of in-plate liquid-liquid extraction were injected onto a Thermo Betabasic C4 column (2.1 mm×20 mm, 5 μm particle size). The samples were then eluted using the following conditions; mobile phase: Isopropanol: acetonitrile/10 mM ammonium formate=50/35/15 (v/v/v), flow rate: 0.8 mL/min, temperature: 25° C. Data was acquired in positive mode using a heated electrospray ionization (HESI) interface. The operational parameters for the TSQ Vantage MS/MS instrument were a spray voltage of 3000 V, capillary temperature of 280° C., vaporizer temperature 400° C., sheath gas 45 arbitrary unit, Aux gas 10 arbitrary units, S-lens 165 and collision gas 1.0 mTorr. […] (SRM) chromatograms of ^13C18-triolein (Q1: 920.8>Q3:621.3) and internal standard ^13C21-triolein (Q1: 923.8>Q3:617.3) were collected for 33 sec. The peak area was integrated by Xcalibur Quan software. The ratio between the ^13C18 triolein generated in the reaction and spiked in internal standard ^13C21-triolein was used to generate percentage inhibition and IC50 values. Compound percentage inhibition was calculated by the following formula: Inhibition %=1−[(compound response−low control)/(high control−low control)]×100%. Potent compounds were titrated and IC50 were calculated by 4 parameter sigmoidal curve fitting formula.
DGAT2 activity was determined by measuring the amount of enzymatic product ^13C18-triolein (^13C-1,2,3-Tri(cis-9-octadecenoyl)glycerol) using the membrane prep mentioned above. The assay was carried out in ABgene 384-well assay plates in a final volume of 25 μL at rt. The assay mixture contained the following: assay buffer (100 mM Tris·Cl, pH 7.0, 20 mM MgCl2, 5% ethanol), 25 μM of diolein, 5 μM of ^13C oleoyl-CoA and 8 ng/μL of DGAT2 membrane.
`CC1(NC(=O)c2cnc3c(-c4cccc(OC(F)F)c4)nn(C4CC(O)C4)c3c2)CS(=O)(=O)C1` (centres unmarked) [Example 88, 3-(3-(difluoromethoxy)phenyl)-1-(3-hydroxycyclobutyl)-N-(3-methyl-1,1-dioxidothietan-3-yl)-1H-pyrazolo[4,3-b]pyridine-6-carboxamide]: inhibition was half-maximal at 80 nM (IC50).

`CC1(NC(=O)c2cnc3c(-c4cccc(OC(F)F)c4)nn(Cc4ccc(F)cc4)c3c2)CS(=O)(=O)C1` [Example 70, 3-(3-(difluoromethoxy)phenyl)-1-(4-fluorobenzyl)-N-(3-methyl-1,1-dioxidothietan-3-yl)-1H-pyrazolo[4,3-b]pyridine-6-carboxamide] came in with an IC50 of 40 nM.

As for `CC(C)n1nc(-c2cccc(S(C)(=O)=O)c2)c2ncc(C(=O)NC3(C)CS(=O)(=O)C3)cc21` [Example 102, 1-isopropyl-N-(3-methyl-1,1-dioxo-thietan-3-yl)-3-(3-methylsulfonylphenyl)pyrazolo[4,3-b]pyridine-6-carboxamide], the IC50 stood at 7100 nM.

`CC(C)n1nc(-c2cccc(F)c2)c2ncc(C(=O)NC3(C)CS(=O)(=O)C3)cc21` [Example 104, 3-(3-fluorophenyl)-1-isopropyl-N-(3-methyl-1,1-dioxo-thietan-3-yl)pyrazolo[4,3-b]pyridine-6-carboxamide] showed an IC50 of 119 nM.

The compound `C[C@@]1(NC(=O)c2cnc3c(-c4ccccc4Cl)cn(-c4ccc(F)cc4)c3c2)CCS(=O)(=O)C1` [Example 12, (R)-3-(2-chlorophenyl)-1-(4-fluorophenyl)-N-(3-methyl-1,1-dioxidotetrahydrothiophen-3-yl)-1H-pyrrolo[3,2-b]pyridine-6-carboxamide] gave an IC50 of 356 nM.

`CC(C)(C)Cn1nc(-c2cccc(OC(F)F)c2)c2ncc(C(=O)NC3(C)CS(=O)(=O)C3)cc21` [Example 29, 3-(3-(difluoromethoxy)phenyl)-N-(3-methyl-1,1-dioxidothietan-3-yl)-1-neopentyl-1H-pyrazolo[4,3-b]pyridine-6-carboxamide] returned an IC50 of 388 nM.

For the compound `CC(C)n1nc(-c2cc(OCC(F)(F)F)ncc2F)c2ncc(C(=O)NC3(C)CS(=O)(=O)C3)cc21` [Example 122, 3-(5-fluoro-2-(2,2,2-trifluoroethoxy)pyridin-4-yl)-1-isopropyl-N-(3-methyl-1,1-dioxidothietan-3-yl)-1H-pyrazolo[4,3-b]pyridine-6-carboxamide], the IC50 stood at 7.7 nM.

With `O=C(NCC1CC(F)(F)C1)c1cnc2c(-c3cccc(OC(F)F)c3)cn(-c3ncc(F)cn3)c2c1` [Example 19, N-((3,3-difluorocyclobutyl)methyl)-3-(3-(difluoromethoxy)phenyl)-1-(5-fluoropyrimidin-2-yl)-1H-pyrrolo[3,2-b]pyridine-6-carboxamide], the IC50 is above 1000 nM.

Take `CC(C)n1nc(-c2ccnc(OC(F)F)c2)c2ncc(C(=O)NC3(C)CS(=O)(=O)C3)cc21` [Example 100, 3-[2-(difluoromethoxy)-4-pyridyl]-1-isopropyl-N-(3-methyl-1,1-dioxo-thietan-3-yl)pyrazolo[4,3-b]pyridine-6-carboxamide]: inhibition was half-maximal at 139 nM (IC50). That is a sub-micromolar value.

`CN(C)[C@H]1COC[C@@H]1NC(=O)c1cnc2c(-c3cccc(OC(F)F)c3)cn(-c3ncc(F)cn3)c2c1` [Example 8, 3-(3-(difluoromethoxy)phenyl)-N-((3R,4R)-4-(dimethylamino)tetrahydrofuran-3-yl)-1-(5-fluoropyrimidin-2-yl)-1H-pyrrolo[3,2-b]pyridine-6-carboxamide] yielded an IC50 of 119 nM.

In turn, `C[C@]1(NC(=O)c2cnc3c(-c4cncc(OC(F)F)c4)cn(C4CCOCC4)c3c2)CCS(=O)(=O)C1` [Example 80, (S)-3-(5-(difluoromethoxy)pyridin-3-yl)-N-(3-methyl-1,1-dioxidotetrahydrothiophen-3-yl)-1-(tetrahydro-2H-pyran-4-yl)-1H-pyrrolo[3,2-b]pyridine-6-carboxamide] yielded an IC50 of 875 nM.

`CC(C)n1nc(-c2cccc(OC(F)F)c2)c2c(F)cc(C(=O)NC3(C)CS(=O)(=O)C3)cc21` [Example 33, 3-(3-(difluoromethoxy)phenyl)-4-fluoro-1-isopropyl-N-(3-methyl-1,1-dioxidothietan-3-yl)-1H-indazole-6-carboxamide]: half-maximal inhibition (IC50) required 1 nM. This IC50 lies about 880-fold lower than the previous one.

`CC(C)n1nc(-c2cccc(C3(C#N)CC3)c2)c2ncc(C(=O)NC3(C)CS(=O)(=O)C3)cc21` [Example 110, 3-(3-(1-cyanocyclopropyl)phenyl)-1-isopropyl-N-(3-methyl-1,1-dioxidothietan-3-yl)-1H-pyrazolo[4,3-b]pyridine-6-carboxamide] had an IC50 of 1930 nM. This IC50 lies about 1900-fold higher than the previous one.

The compound `CC(C)n1nc(-c2cccc(OC(F)F)n2)c2ncc(C(=O)NC3(C)CS(=O)(=O)C3)cc21` [Example 96, 3-[6-(difluoromethoxy)-2-pyridyl]-1-isopropyl-N-(3-methyl-1,1-dioxo-thietan-3-yl)pyrazolo[4,3-b]pyridine-6-carboxamide] registered an IC50 of 5540 nM.

`CC(C)(O)Cn1nc(-c2cccc(OC(F)F)c2)c2ncc(C(=O)NC3(C)CS(=O)(=O)C3)cc21` [Example 111, 3-(3-(difluoromethoxy)phenyl)-1-(2-hydroxy-2-methylpropyl)-N-(3-methyl-1,1-dioxidothietan-3-yl)-1H-pyrazolo[4,3-b]pyridine-6-carboxamide] had an IC50 of 22 nM.

Compound `CC(C)n1nc(-c2cccc(OC(F)F)c2)c2ccc(C(=O)NC3(C)CS(=O)(=O)C3)c(F)c21` [Example 34, 3-(3-(difluoromethoxy)phenyl)-7-fluoro-1-isopropyl-N-(3-methyl-1,1-dioxidothietan-3-yl)-1H-indazole-6-carboxamide] yielded an IC50 of 5.2 nM.

For the compound `CC[C@H](C)n1nc(-c2cc(OC(F)F)ncc2F)c2ncc(C(=O)NC3(C)CCS(=O)(=O)CC3)cc21` [Example 116, (S)-1-(sec-butyl)-3-(2-(difluoromethoxy)-5-fluoropyridin-4-yl)-N-(4-methyl-1,1-dioxidotetrahydro-2H-thiopyran-4-yl)-1H-pyrazolo[4,3-b]pyridine-6-carboxamide], the midpoint of inhibition, the IC50, lay at 11.5 nM.

In turn, `Cn1nc(-c2cccc(OC(F)F)c2)c2ncc(C(=O)NC3(C)CS(=O)(=O)C3)cc21` [Example 26, 3-(3-(difluoromethoxy)phenyl)-1-methyl-N-(3-methyl-1,1-dioxidothietan-3-yl)-1H-pyrazolo[4,3-b]pyridine-6-carboxamide] showed an IC50 of 153 nM.

For `CC1(NC(=O)c2cnc3c(-c4cccc(OC(F)F)c4)nn(C4CCOCC4C(F)(F)F)c3c2)CS(=O)(=O)C1` (centres unmarked) [Example 71, 3-(3-(difluoromethoxy)phenyl)-N-(3-methyl-1,1-dioxidothietan-3-yl)-1-(3-(trifluoromethyl)tetrahydro-2H-pyran-4-yl)-1H-pyrazolo[4,3-b]pyridine-6-carboxamide], the IC50 stood at 95 nM.

Compound `CC(C)n1nc(-c2cccc(OCC(F)F)c2)c2ncc(C(=O)NC3(C)CS(=O)(=O)C3)cc21` [Example 94, 3-[3-(2,2-difluoroethoxy)phenyl]-1-isopropyl-N-(3-methyl-1,1-dioxo-thietan-3-yl)pyrazolo[4,3-b]pyridine-6-carboxamide] had an IC50 of 7 nM.

`CC(C)n1nc(-c2cncc(OC(F)F)c2)c2ncc(C(=O)NC3(C)CS(=O)(=O)C3)cc21` [Example 95, 3-[5-(difluoromethoxy)-3-pyridyl]-1-isopropyl-N-(3-methyl-1,1-dioxo-thietan-3-yl)pyrazolo[4,3-b]pyridine-6-carboxamide] registered an IC50 of 26 nM. This IC50 lies about 3.7-fold higher than the previous one.

As to `CC(C)n1nc(-c2cccc(OC(F)F)c2)c2c(C#N)cc(C(=O)NC3(C)CS(=O)(=O)C3)cc21` [Example 91, 4-cyano-3-(3-(difluoromethoxy)phenyl)-1-isopropyl-N-(3-methyl-1,1-dioxidothietan-3-yl)-1H-indazole-6-carboxamide], it took 2 nM to reach half-maximal inhibition (IC50).

The compound `Cn1nccc1-c1nn(-c2ccc(F)cc2)c2cc(C(=O)N[C@@]3(C)CCS(=O)(=O)C3)cnc12` [Example 2, (S)-1-(4-fluorophenyl)-N-(3-methyl-1,1-dioxidotetrahydrothiophen-3-yl)-3-(1-methyl-1H-pyrazol-5-yl)-1H-pyrazolo[4,3-b]pyridine-6-carboxamide] displayed a concentration for half-maximal inhibition (IC50) of 142 nM.
